{
  "source": "patent US20040057958A1",
  "about": "“Immunogenicity-enhancing carriers and compositions thereof and methods of using the same” (priority 2002, published 2004)",
  "tested_on": "mice",
  "experiment": "ELISA of antisera from mice immunized with CPT1PaTXL",
  "format": "in vivo",
  "conditions": "ten mice inoculated SC/IP with CPT1PaTXL (first two inoculations +PTA); any bleed, including the terminal bleed; TXL coupled to BSA for ELISA",
  "procedure": "The hybridoma project began with a series of sequential inoculations by subcutaneous (SC) or interperitoneal (IP) injections of 100 μg of CPT1PaTXL formulated in PBS. In addition to the CPT1PaTXL, the first two inoculations also contained […] toxin as adjuvant (PTA). All subsequent inoculations were without PTA and had various amounts of CPT1PaTXL according to the following approximate schedule:\nTen mice were used in the immunization protocol. At each scheduled test bleed, 100 μl of blood was obtained from the tail, and an ELISA was conducted to evaluate reactivity against either Polyglutamate (PG) alone, Paclitaxel (TXL) or CT-2103. Because of the poor solubility of TXL in aqueous solutions, TXL was coupled to Bovine Serum Albumin, fraction V (Sigma Biochemicals, St. Louis Mo.) for ELISA testing. ELISA assays are performed as described in detail in Harlow, E. and Lane, D., Antibodies, A Laboratory Manual, Cold Spring Harbor Laboratory Press, 1988, pp. 564-569. Reactivity against the P. falciparum peptide epitope was analyzed following the terminal bleed.",
  "data": [
    {"molecule": "CC(=O)O[C@H]1C(=O)[C@@]2(C)[C@H]([C@H](OC(=O)c3ccccc3)[C@]3(O)C[C@H](OC(=O)[C@H](O)[C@@H](NC(=O)c4ccccc4)c4ccccc4)C(C)=C1C3(C)C)[C@]1(OC(C)=O)CO[C@@H]1C[C@@H]2O", "note": "[TXL, Paclitaxel]", "values": [
      {"measurement": "antibody reactivity (anti-PG, anti-TXL, anti-CT-2103) in ELISA of test bleeds", "result": "no detectable"}
    ]}
  ]
}
